# ChEMBL document CHEMBL1201862, “PubChem BioAssay data set” (2004)
# Activity calls are given as the source filed them.
# What was measured:
# [1] = biological target: Scavenger receptor class B member 1 (Mus musculus, UniProt Q61009); test: mouse SR-BI DiI-HDL uptake blockers – ldlA[mSR-BI] cells, fluorescence, cherry pick, dose response (AID 493194); type: functional, cell-based;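 also: cellular uptake of fluorescent DiI-labeled HDL measured as cell fluorescence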
# Fatty acid synthase [2] = biological target: T1, Fatty acid synthase (Homo sapiens, UniProt P49327); test: inhibition of human FAS-TE enzyme activity – biochemical, kinetic fluorescence intensity, dose response (AID 624326); type: functional;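 also: rate of fluorescence rise from hydrolysis of a fluorogenic O-methyl fluorescein ester substrate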
# [3] = biological target: Neurotensin receptor type 1 (Homo sapiens, UniProt P30989); type: functional;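 also: Image-based confirmatory dose-response assay measuring agonist activity at NTR1; NTR1-expressing U2OS osteosarcoma cells imaged for beta-arrestin GFP spot formation; agonist potency where compounds increase beta-arrestin recruitment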
# Fatty acid synthase [4] = biological target: T1, Fatty acid synthase; test: inhibition of human FAS-TE enzyme activity – biochemical, endpoint fluorescence intensity, uHTS hits, dose response (AID 624327); type: functional;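 also: fluorescence from hydrolysis of an O-methyl fluorescein acyl ester substrate by the enzyme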
# [5] = Vero E6 cell cytotoxicity, dose response, cytotoxicity control for non-replicating M. tuberculosis project, secondary assay (AID 492998); type: functional, VeroE6; conditions: Vero C1008
# [6] = NIH3T3 cell viability loss – ATP luminescence, mouse fibroblasts, counter-screen, dose response (AID 2010); type: functional, cell-based;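 also: cells exposed to compound for about 90 hours before reading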
# [7] = biological target: Voltage-dependent T-type calcium channel subunit alpha-1H (Homo sapiens, UniProt O95180); type: functional;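 also: channel activity triggered by adding a high calcium stimulation buffer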
# Nonstructural protein 1 = Nonstructural protein 1 (Influenza A virus, UniProt Q194T2); type: functional, Influenza A virus (A/California/07/2009(H1N1))
# cells = type: functional
# [8] = THP-1 cell cytotoxicity, dose response, cytotoxicity control for non-replicating M. tuberculosis project (AID 489025); type: functional
# [9] = biological target: Serine/threonine-protein phosphatase PP1-alpha catalytic subunit (Homo sapiens, UniProt P62136); test: inhibition of protein phosphatase 1 activity – biochemical, fluorescence, dose response (AID 2403);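 also: phosphatase turnover of OMFP into fluorescent 3-O-methylfluorescein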
# [10] = biological target: Serine/threonine-protein phosphatase (Homo sapiens, UniProt Q9BPW0); test: Counterscreen for inhibitors of PP1: fluorescence-based biochemical high throughput dose response assay to identify inhibitors of Protein Phosphatase 5 (PP5). [Related pubchem assays: 2034 (Summary (PP5 inhibitors)), 1987 (PP5 inhibitors in singlate), 2235 (PP1 inhibitors in singlate)]
# [11] = biological target: Glyceraldehyde-3-phosphate dehydrogenase (Homo sapiens, UniProt P04406)
# [12] = Trypanosoma cruzi growth suppression in host cells – NIH3T3 host cells, beta-gal luminescence, confirmation (AID 2044); type: functional, cell-based;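 also: intracellular parasites grown in NIH/3T3 mouse fibroblasts as host cells; luminescent beta-galactosidase reporter signal from transgenic T. cruzi replicating inside host cells; inhibitors lower the luminescence signal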
# ORF 73 = ORF 73 (Human herpesvirus 8, UniProt O40947); test: KSHV LANA DNA-binding disruption – biochemical, fluorescence polarization, cherry-picked samples, dose response (AID 504725); design: species or system Human gammaherpesvirus 8;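 also: fluorescence polarization of a labeled DNA duplex reporting LANA DNA binding; potency is for inhibitors that block LANA binding to the DNA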
# [13] = biological target: T2, Heat shock factor protein 1 (Mus musculus, UniProt P38532); test: decrease of HSF1-responsive luciferase luminescence – cell-based, NIH3T3, dose retest, confirmation (AID 2382); type: functional;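 also: NIH3T3 fibroblasts with HSF1-driven luciferase reporter stressed by proteasome inhibitor MG132; luminescence from HSF1-driven luciferase expression after 8 hours of MG132 stress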
# T2 sequence (P38532 whole entry): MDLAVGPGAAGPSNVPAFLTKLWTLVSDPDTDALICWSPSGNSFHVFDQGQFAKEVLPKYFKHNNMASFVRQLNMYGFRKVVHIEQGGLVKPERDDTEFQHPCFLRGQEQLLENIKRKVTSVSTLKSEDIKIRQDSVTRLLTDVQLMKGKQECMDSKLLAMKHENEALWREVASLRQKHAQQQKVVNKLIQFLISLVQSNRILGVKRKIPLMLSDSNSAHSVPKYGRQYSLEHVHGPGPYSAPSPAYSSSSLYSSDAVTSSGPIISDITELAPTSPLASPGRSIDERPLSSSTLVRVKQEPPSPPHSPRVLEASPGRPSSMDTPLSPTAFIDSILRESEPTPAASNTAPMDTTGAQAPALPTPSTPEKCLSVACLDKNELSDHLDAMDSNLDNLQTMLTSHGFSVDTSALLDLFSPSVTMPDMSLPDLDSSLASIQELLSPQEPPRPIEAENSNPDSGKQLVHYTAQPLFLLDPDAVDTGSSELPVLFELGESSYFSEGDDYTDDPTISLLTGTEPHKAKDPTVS
# [14] = HEK-293T cell viability reduction – luminescence, B-cell screen hits, cytotoxicity control for BCR NF-kB inhibitor project, dose response (AID 489021); type: functional, cell-based;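 also: HEK-293T cells carrying an NF-kB luciferase reporter; cells exposed to compound for about 14 hours before viability readout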
# [15] = biological target: Heat shock protein HSP 90-alpha (Homo sapiens, UniProt P07900); test: Luminescence-based dose response biochemical high throughput screening assay for inhibitors of the Heat Shock Protein 90 (HSP90). [Related pubchem assays: 1831 (Summary AID.), 1846 (Confirmation screen.), 1789 (Primary screen.)]
# T1 sequence (P49327 whole entry): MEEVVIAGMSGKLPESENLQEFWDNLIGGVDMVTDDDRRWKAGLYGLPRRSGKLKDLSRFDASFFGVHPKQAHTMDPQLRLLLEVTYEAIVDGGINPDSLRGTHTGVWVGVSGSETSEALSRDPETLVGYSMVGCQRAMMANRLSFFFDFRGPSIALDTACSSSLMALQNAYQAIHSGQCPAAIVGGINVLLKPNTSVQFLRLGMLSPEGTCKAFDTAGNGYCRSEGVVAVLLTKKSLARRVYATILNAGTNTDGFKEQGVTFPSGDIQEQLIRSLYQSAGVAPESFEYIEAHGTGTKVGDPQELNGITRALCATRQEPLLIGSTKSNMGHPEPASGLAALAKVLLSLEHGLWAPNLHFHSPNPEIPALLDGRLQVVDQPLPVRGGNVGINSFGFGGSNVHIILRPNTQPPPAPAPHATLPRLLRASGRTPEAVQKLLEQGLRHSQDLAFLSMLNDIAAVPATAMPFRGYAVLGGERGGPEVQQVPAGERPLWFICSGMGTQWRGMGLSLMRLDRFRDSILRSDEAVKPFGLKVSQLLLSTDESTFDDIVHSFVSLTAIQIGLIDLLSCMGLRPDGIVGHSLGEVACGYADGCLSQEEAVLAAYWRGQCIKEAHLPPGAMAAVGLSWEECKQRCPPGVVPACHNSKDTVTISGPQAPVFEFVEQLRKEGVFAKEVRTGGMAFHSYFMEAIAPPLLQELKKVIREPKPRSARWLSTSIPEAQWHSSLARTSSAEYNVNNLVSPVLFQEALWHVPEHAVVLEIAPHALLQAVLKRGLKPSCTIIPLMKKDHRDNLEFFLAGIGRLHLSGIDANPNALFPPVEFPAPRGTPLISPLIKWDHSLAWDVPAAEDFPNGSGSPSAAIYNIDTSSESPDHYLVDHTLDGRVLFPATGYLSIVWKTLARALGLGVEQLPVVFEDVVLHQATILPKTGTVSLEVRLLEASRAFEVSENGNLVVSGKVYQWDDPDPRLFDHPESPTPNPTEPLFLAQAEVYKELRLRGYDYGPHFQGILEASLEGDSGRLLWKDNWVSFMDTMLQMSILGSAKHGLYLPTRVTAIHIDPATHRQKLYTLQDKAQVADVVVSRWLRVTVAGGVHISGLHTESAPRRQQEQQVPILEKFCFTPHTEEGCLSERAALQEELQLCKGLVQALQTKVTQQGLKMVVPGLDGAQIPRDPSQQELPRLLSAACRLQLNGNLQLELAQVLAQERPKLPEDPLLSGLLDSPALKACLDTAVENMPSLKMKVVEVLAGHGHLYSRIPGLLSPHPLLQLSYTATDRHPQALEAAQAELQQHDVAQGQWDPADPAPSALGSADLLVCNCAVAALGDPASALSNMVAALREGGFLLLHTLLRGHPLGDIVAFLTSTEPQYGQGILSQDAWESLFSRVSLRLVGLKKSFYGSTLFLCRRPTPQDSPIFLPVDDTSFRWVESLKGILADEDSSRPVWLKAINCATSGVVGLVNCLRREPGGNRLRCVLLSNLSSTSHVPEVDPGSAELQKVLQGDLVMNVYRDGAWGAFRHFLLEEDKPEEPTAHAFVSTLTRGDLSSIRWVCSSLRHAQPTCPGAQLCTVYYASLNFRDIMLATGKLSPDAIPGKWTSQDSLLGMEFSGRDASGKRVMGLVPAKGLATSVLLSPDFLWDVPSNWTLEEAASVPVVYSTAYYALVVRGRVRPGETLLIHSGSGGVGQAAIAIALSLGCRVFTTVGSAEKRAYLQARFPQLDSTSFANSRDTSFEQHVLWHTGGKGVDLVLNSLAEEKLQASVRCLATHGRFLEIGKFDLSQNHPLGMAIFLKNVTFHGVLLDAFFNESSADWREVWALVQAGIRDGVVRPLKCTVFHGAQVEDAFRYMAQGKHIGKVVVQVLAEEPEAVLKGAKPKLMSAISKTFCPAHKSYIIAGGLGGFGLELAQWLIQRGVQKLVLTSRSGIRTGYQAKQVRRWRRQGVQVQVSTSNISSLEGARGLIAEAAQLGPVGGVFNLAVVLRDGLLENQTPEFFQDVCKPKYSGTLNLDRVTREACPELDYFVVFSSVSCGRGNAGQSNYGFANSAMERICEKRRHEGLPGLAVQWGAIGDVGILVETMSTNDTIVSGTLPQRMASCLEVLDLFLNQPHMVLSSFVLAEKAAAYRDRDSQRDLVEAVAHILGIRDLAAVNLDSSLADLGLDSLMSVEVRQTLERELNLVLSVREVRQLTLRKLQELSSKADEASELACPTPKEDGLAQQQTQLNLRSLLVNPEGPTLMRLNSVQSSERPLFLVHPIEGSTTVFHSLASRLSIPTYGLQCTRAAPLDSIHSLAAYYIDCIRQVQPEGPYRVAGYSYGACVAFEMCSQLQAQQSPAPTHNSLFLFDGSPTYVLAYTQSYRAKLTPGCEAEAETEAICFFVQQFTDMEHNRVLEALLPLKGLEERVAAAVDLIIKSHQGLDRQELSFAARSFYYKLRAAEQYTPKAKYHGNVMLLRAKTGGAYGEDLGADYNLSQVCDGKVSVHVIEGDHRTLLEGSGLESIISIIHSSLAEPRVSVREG
# Sequence of Glyceraldehyde-3-phosphate dehydrogenase (P04406 whole entry): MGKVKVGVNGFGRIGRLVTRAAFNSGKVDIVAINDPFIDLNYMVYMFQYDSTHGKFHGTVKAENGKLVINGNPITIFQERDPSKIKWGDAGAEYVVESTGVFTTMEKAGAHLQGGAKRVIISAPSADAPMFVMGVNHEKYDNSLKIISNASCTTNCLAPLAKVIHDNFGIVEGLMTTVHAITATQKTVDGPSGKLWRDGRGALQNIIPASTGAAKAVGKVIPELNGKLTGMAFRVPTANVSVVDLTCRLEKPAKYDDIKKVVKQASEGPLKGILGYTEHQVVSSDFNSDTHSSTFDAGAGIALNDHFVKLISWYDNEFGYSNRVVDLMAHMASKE
# Sequence of Nonstructural protein 1 (Q194T2 whole entry): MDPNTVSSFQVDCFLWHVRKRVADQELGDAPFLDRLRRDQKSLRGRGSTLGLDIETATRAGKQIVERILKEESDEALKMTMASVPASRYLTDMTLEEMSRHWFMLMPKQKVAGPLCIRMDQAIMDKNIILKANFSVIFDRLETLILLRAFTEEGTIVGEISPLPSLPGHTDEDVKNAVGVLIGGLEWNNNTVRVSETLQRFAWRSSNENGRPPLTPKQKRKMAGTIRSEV
# Sequence of Serine/threonine-protein phosphatase PP1-alpha catalytic subunit (P62136 whole entry): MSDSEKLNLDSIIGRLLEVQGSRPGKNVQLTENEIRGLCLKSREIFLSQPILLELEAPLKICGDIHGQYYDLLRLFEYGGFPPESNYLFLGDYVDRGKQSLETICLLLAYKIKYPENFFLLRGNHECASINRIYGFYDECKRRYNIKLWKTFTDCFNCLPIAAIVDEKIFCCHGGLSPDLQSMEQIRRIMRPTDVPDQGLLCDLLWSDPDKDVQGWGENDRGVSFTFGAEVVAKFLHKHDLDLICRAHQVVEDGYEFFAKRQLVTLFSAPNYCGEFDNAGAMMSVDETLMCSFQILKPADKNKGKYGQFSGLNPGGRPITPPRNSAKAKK
# Sequence of Neurotensin receptor type 1 (P30989 whole entry): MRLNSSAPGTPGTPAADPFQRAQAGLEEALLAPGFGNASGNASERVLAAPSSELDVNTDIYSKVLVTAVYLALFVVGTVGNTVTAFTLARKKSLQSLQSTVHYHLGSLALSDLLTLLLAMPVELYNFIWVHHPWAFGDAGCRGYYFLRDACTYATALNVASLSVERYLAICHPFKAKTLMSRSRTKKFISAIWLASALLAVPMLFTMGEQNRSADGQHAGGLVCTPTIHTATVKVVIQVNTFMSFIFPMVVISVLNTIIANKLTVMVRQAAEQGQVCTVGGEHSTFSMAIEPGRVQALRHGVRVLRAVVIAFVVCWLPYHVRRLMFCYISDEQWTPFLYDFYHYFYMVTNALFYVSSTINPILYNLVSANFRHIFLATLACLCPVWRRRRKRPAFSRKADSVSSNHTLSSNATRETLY
# Sequence of Scavenger receptor class B member 1 (Q61009 whole entry): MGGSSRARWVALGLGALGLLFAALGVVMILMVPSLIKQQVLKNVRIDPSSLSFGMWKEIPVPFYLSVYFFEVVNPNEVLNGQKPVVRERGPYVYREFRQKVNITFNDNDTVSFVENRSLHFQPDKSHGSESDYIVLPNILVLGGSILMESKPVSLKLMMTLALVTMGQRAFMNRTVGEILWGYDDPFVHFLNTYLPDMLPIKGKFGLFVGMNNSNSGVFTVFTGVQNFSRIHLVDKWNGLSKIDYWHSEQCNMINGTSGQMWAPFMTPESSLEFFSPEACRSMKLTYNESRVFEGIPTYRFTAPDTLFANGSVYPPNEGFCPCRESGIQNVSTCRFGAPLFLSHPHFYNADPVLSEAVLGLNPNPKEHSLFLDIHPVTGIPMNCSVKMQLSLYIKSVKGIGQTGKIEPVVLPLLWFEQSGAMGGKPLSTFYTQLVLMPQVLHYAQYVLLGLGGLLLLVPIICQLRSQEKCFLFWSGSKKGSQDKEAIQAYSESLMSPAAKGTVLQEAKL
# Sequence of Serine/threonine-protein phosphatase (Q9BPW0 whole entry): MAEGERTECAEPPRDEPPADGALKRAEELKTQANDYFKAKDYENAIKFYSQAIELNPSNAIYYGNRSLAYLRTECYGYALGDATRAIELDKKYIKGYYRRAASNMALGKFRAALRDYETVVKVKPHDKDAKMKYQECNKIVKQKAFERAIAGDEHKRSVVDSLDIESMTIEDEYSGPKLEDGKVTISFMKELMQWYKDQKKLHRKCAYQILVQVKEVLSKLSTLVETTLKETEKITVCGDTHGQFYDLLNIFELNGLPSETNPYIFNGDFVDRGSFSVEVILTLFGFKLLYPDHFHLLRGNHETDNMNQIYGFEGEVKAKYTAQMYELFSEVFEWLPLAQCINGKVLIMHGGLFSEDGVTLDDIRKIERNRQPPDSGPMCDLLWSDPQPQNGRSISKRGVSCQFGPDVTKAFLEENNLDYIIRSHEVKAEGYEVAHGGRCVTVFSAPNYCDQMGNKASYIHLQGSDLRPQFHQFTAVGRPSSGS
smiles,measurement,setting,value
Cc1cc(C)n(CC(=O)NC2CCCc3c2cnn3-c2ccc(C)c(C)c2)n1 (stereo not drawn),AC50,[1],819 nM (active)
C[C@@H](NC(=O)c1[nH]cnc1C(=O)Nc1ccc(Cl)cc1)c1ccccc1,IC50,Fatty acid synthase [2],7.01 µM (active)
same,EC50,[3],19.9 µM (active)
same,IC50,Fatty acid synthase [4],8.13 µM (active)
Cc1cccc(Nc2nc(-c3ccccn3)cs2)n1,CC50,[5],11.6 µM (active)
same,EC50,[6],8.56 µM (active)
same,EC50,[7],7.24 µM (active)
same,IC50,Nonstructural protein 1,29.6 µM (active)
same,IC50,cells,270 nM (active)
same,CC50,[8],21.8 µM (active)
same,IC50,[9],4.96 µM (active)
same,IC50,[10],> 22.3 µM (not active)
same,IC50,[11],> 10 µM (inconclusive)
same,EC50,[12],503 nM (active)
O=C(COc1ccccc1Cc1ccccc1)NCCCN1CCOCC1,AC50,ORF 73,183 µM (active)
Cc1ccc(/C=C2\SC(=S)N(CCCC(=O)Nc3ccccn3)C2=O)cc1,EC50,[13],1.51 µM (active)
same,IC50,[14],> 80 µM (inactive)
same,IC50,[15],17.8 µM (not active)
